“And” between values parts separate entries of the source, which are not always exact repeats. Equal values may be shown once.
Columns and labels:
Brd4 bromodomain = biological target: T1, Brd4 bromodomain (Homo sapiens, UniProt O60885); test: Alpha-screen enzyme assay (bromodomain binding to acetylated histone peptide); conditions: for IC50 / inhibitory activity against Brd4 bromodomain (in words): alpha-screen assay; for IC50: inhibition of bromodomain binding activity, calculated with Prism6;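 on all read-outs here: AlphaScreen proximity readout pairing streptavidin donor beads with anti-GST acceptor beads, with hits checked against bead interference using a TruHit control kit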
T1 construct: glutathione-S-transferase (GST) and His-tagged bromodomain; made in house
Protocol: Bromodomain was prepared as previously described. […] Streptavidin-coated donor beads and anti-GST alpha-screen acceptor beads were added under low-light condition. […] The alpha-screen results were confirmed by using alpha-screen TruHit kits (PerkinElmer, USA).

Ty82 cells = test: Cell cytotoxic assay in Ty82 cells; format: cell-based; conditions: Homo sapiens; for CC50: Ty82 cell cytotoxic activity, 72 h; for IC50: TY82, cell cytotoxic activity (Table 4 head prints IC50)
Protocol: For the viability experiments, Ty82 cells were seeded in 96-well plates at 30% confluency and exposed to chemicals the next day. After 72 h, WST-1 reagent was added, and absorbance at 450 nm was measured by using a Spectramax spectrophotometer (Molecular Devices, San Jose, CA, USA) in accordance with the manufacturer’s instructions. The CC50 values were calculated by using GraphPad Prism version 5 for Windows. The curves were fitted using a nonlinear regression model with a log (inhibitor) versus response formula.

COc1cccc2c1Oc1c(OC)ccc3c1C(=C2)N(C)C3=O [Compound 8aa, 5,7-Dimethoxy-1-methylbenzo[6,7]oxepino[4,3,2-cd]isoindol-2(1H)-one]
melting point: 208 to 210 °C
IC50 (Brd4 bromodomain): 0.84 µM

CCOc1c(OC)ccc2c1Oc1c(OC)ccc3c1C(=C2)N(C)C3=O [Compound 8ab, 7-Ethoxy-5,8-dimethoxy-1-methylbenzo[6,7]oxepino[4,3,2-cd]isoindol-2(1H)-one]
increase in activity compared with 8ae (Brd4 bromodomain; Brd4 IC50 ratio): four-fold increased activity
IC50 (Brd4 bromodomain): 0.86 µM

COc1ccc(CCOc2c(OC)ccc3c2Oc2c(OC)ccc4c2C(=C3)N(C)C4=O)cc1 [Compound 8ac, 5,8-Dimethoxy-7-(4-methoxyphenethoxy)-1-methylbenzo[6,7]oxepino[4,3,2-cd]isoindol-2(1H)-one]
CC50 (Ty82 cells): > 20 µM
IC50 (Brd4 bromodomain): 3.74 µM

COc1ccc2c(c1OCCCOc1ccccc1)Oc1c(OC)ccc3c1C(=C2)N(C)C3=O [Compound 8ad, 5,8-Dimethoxy-1-methyl-7-(3-phenoxypropoxy)benzo[6,7]oxepino[4,3,2-cd]isoindol-2(1H)-one]
CC50 (Ty82 cells): > 4 µM
melting point: 189 to 191 °C
IC50 (Brd4 bromodomain): 7.08 µM and 7.07 µM

CCOc1ccc2c3c1Oc1c(ccc(OC)c1OC)C=C3N(C)C2=O [Compound 8ae, 5-Ethoxy-7,8-dimethoxy-1-methylbenzo[6,7]oxepino[4,3,2-cd]isoindol-2(1H)-one]
melting point: 219 to 220 °C
inhibitory activity against Brd4 bromodomain (in words) (Brd4 bromodomain): slightly increased the inhibitory activity compared with 8af
IC50 (Brd4 bromodomain): 4.16 µM

CCOc1ccc2c3c1Oc1c(ccc(OC)c1OCCc1ccc(OC)cc1)C=C3N(C)C2=O [Compound 8af, 5-Ethoxy-8-methoxy-7-(4-methoxyphenethoxy)-1-methylbenzo[6,7]oxepino[4,3,2-cd]isoindol-2(1H)-one]
CC50 (Ty82 cells): > 4 µM
melting point: 189 to 191 °C
inhibitory activity against Brd4 bromodomain (in words) (Brd4 bromodomain): weak inhibitory effect
IC50 (Brd4 bromodomain): 5.33 µM

COc1ccc2c3c1Oc1ccc(OCC(C)C)cc1C=C3N(C)C2=O [Compound 8ba, 9-Isobutoxy-5-methoxy-1-methylbenzo[6,7]oxepino[4,3,2-cd]isoindol-2(1H)-one]
IC50 (Brd4 bromodomain): 16.7 µM

COc1ccc2c3c1Oc1ccc(C(F)(F)F)cc1C=C3N(C)C2=O [Compound 8bb, 5-Methoxy-1-methyl-9-(trifluoromethyl)benzo[6,7]oxepino[4,3,2-cd]isoindol-2(1H)-one]
CC50 (Ty82 cells): > 20 µM
inhibitory activity against Brd4 bromodomain (in words) (Brd4 bromodomain): no inhibitory activity
IC50 (Brd4 bromodomain): > 32 µM

COc1ccc2c3c1Oc1ccc(O)cc1C=C3N(C)C2=O [Compound 8bd, 9-Hydroxy-5-methoxy-1-methylbenzo[6,7]oxepino[4,3,2-cd]isoindol-2(1H)-one]
CC50 (Ty82 cells): 0.54 µM
melting point: 177 to 179 °C
IC50 (Brd4 bromodomain): 0.41 µM

CCN(CC)CCOc1ccc2c(c1)C=C1c3c(ccc(OC)c3O2)C(=O)N1C [Compound 8be, 9-(2-(Diethylamino)ethoxy)-5-methoxy-1-methylbenzo[6,7]oxepino[4,3,2-cd]isoindol-2(1H)-one]
CC50 (Ty82 cells): 0.56 µM
melting point: 174 to 176 °C
IC50 (Brd4 bromodomain): 0.86 µM

COc1ccc2c3c1Oc1ccc(OCc4ccccn4)cc1C=C3N(C)C2=O [Compound 8bf, 5-Methoxy-1-methyl-9-(pyridine-2-ylmethoxy)benzo[6,7]oxepino[4,3,2-cd]isoindol-2(1H)-one]
CC50 (Ty82 cells): 0.23 µM
melting point: 176 to 178 °C
IC50 (Brd4 bromodomain): 0.91 µM

COc1ccc2c3c1Oc1ccc(OCc4ccccc4)cc1C=C3N(C)C2=O [Compound 8bg, 9-Benzyloxy-5-methoxy-1-methylbenzo[6,7]oxepino[4,3,2-cd]isoindol-2(1H)-one]
melting point: 187 to 189 °C
inhibitory activity against Brd4 bromodomain (in words) (Brd4 bromodomain): did not
IC50 (Brd4 bromodomain): > 32 µM

COc1ccc2c3c1Oc1cc4c(cc1C=C3N(C)C2=O)OCO4 [Compound 8bh, 5-Methoxy-1-methyl-[1,3]dioxolo[4”,5”.4′,5′]benzo[1′,2′:6,7]oxepino[4,3,2-cd]isoindol-2(1H)-one]
CC50 (Ty82 cells): 2.16 µM
melting point: 237 to 239 °C
inhibitory activity against Brd4 bromodomain (in words) (Brd4 bromodomain): modest inhibition
IC50 (Brd4 bromodomain): 11.1 µM

CCOc1ccc2c3c1Oc1ccc(OCC(C)C)cc1C=C3N(C)C2=O [Compound 8bi, 9-Isobutoxy-5-ethoxy-1-methylbenzo[6,7]oxepino[4,3,2-cd]isoindol-2(1H)-one]
melting point: 178 to 180 °C
IC50 (Brd4 bromodomain): > 10 µM

CCOc1ccc2c3c1Oc1ccc(C(F)(F)F)cc1C=C3N(C)C2=O [Compound 8bj, 5-Ethoxy-1-methyl-9-(trifluoromethyl)benzo[6,7]oxepino[4,3,2-cd]isoindol-2(1H)-one]
CC50 (Ty82 cells): > 20 µM
melting point: 230 to 232 °C
IC50 (Brd4 bromodomain): > 9 µM

CCOc1ccc2c3c1Oc1ccc(O)cc1C=C3N(C)C2=O [Compound 8bl, 5-Ethoxy-9-hydroxy-1-methylbenzo[6,7]oxepino[4,3,2-cd]isoindol-2(1H)-one]
CC50 (Ty82 cells): 0.31 µM
IC50 (Brd4 bromodomain): 1.12 µM

CCOc1ccc2c3c1Oc1ccc(OCCN(CC)CC)cc1C=C3N(C)C2=O [Compound 8bm, 9-(2-(Diethylamino)ethoxy)-5-ethoxy-1-methylbenzo[6,7]oxepino[4,3,2-cd]isoindol-2(1H)-one]
CC50 (Ty82 cells): 0.66 µM
melting point: 169 to 171 °C
IC50 (Brd4 bromodomain): 0.91 µM

CCOc1ccc2c3c1Oc1ccc(OCc4ccccn4)cc1C=C3N(C)C2=O [Compound 8bn, 5-Ethoxy-1-methyl-9-(pyridine-2-ylmethoxy)benzo[6,7]oxepino[4,3,2-cd]isoindol-2(1H)-one]
CC50 (Ty82 cells): 0.36 µM
melting point: 188 to 190 °C
IC50 (Brd4 bromodomain): 0.68 µM

CCOc1ccc2c3c1Oc1ccc(OCc4ccccc4)cc1C=C3N(C)C2=O [Compound 8bo]
melting point: 198 to 200 °C

CCOc1ccc2c3c1Oc1cc4c(cc1C=C3N(C)C2=O)OCO4 [Compound 8bp, 5-Ethoxy-1-methyl-[1,3]dioxolo[4”,5”.4′,5′]benzo[1′,2′:6,7]oxepino[4,3,2-cd]isoindol-2(1H)-one]
CC50 (Ty82 cells): 3.81 µM
melting point: 207 to 209 °C
inhibitory activity against Brd4 bromodomain (in words) (Brd4 bromodomain): modest inhibition
IC50 (Brd4 bromodomain): 2.89 µM

CCN(CC)c1ccc2c3c1Oc1ccc(O)cc1C=C3N(C)C2=O [Compound 8cb, 5-(Diethylamino)-9-hydroxy-1-methylbenzo[6,7]oxepino[4,3,2-cd]isoindol-2(1H)-one]
CC50 (Ty82 cells): 8 µM
melting point: 181 to 183 °C
inhibitory activity against Brd4 bromodomain (in words) (Brd4 bromodomain): weaker inhibitory effects than 8bd and 8bl
IC50 (Brd4 bromodomain): 4.89 µM

CCN(CC)c1ccc2c3c1Oc1ccc(O)cc1CC3N(C)C2=O (centres unmarked) [Compound 8cc, 5-(Diethylamino)-9-hydroxy-1-methyl-11,11a-dihydrobenzo[6,7]oxepino[4,3,2-cd]isoindol-2(1H)-one]
CC50 (Ty82 cells): 10 µM
melting point: 165 to 167 °C
IC50 (Brd4 bromodomain): 5.86 µM

CCN(CC)c1ccc2c3c1Oc1ccc(OCc4ccccc4)cc1C=C3N(C)C2=O [Compound 8cd, 9-(Benzyloxy)-5-(diethylamino)-1-methylbenzo[6,7]oxepino[4,3,2-cd]isoindol-2(1H)-one]
CC50 (Ty82 cells): > 20 µM
melting point: 185 to 188 °C
IC50 (Brd4 bromodomain): > 32 µM

CCN(CC)c1ccc2c3c1Oc1cc4c(cc1C=C3N(C)C2=O)OCO4 [Compound 8ce, 5-(Diethylamino)-1-methyl-[1,3]dioxolo[4”,5”.4′,5′]benzo[1′,2′:6,7]oxepino[4,3,2-cd]isoindol-2(1H)-one]
CC50 (Ty82 cells): 10 µM
melting point: 199 to 201 °C
IC50 (Brd4 bromodomain): 7.29 µM

CCCc1ccc2c3c1Oc1ccc(OCC(C)C)cc1C=C3N(C)C2=O [Compound 8da, 9-Isobutoxy-1-methyl-5-propylbenzo[6,7]oxepino[4,3,2-cd]isoindol-2(1H)-one]
IC50 (Ty82 cells): 10 µM
melting point: 196 to 199 °C
IC50 (Brd4 bromodomain): 6.64 µM

CCCc1ccc2c3c1Oc1ccc(C(F)(F)F)cc1C=C3N(C)C2=O [Compound 8db, 1-Methyl-5-propyl-9-(trifluoromethyl)benzo[6,7]oxepino[4,3,2-cd]isoindol-2(1H)-one]
IC50 (Ty82 cells): > 20 µM
melting point: 239 to 241 °C
IC50 (Brd4 bromodomain): > 32 µM

CCCc1ccc2c3c1Oc1ccc(OCc4ccccn4)cc1C=C3N(C)C2=O [Compound 8dc, 1-Methyl-5-propyl-9-(pyridine-2-ylmethoxy)benzo[6,7]oxepino[4,3,2-cd]isoindol-2(1H)-one]
IC50 (Ty82 cells): 1.77 µM
IC50 (Brd4 bromodomain): 1.37 µM

CCCc1ccc2c3c1Oc1ccc(OCc4ccccc4)cc1C=C3N(C)C2=O [Compound 8dd, 9-(Benzyloxy)-1-methyl-5-propylbenzo[6,7]oxepino[4,3,2-cd]isoindol-2(1H)-one]
IC50 (Ty82 cells): 10 µM
melting point: 203 to 205 °C
IC50 (Brd4 bromodomain): 9 µM

CCCc1ccc2c3c1Oc1cc4c(cc1C=C3N(C)C2=O)OCO4 [Compound 8de, 1-methyl-5-propyl-[1,3]dioxolo[4”,5”.4′,5′]benzo[1′,2′:6,7]oxepino[4,3,2-cd]isoindol-2(1H)-one]
IC50 (Ty82 cells): 4.5 µM
melting point: 257 to 259 °C
IC50 (Brd4 bromodomain): 2.69 µM

Cc1ccc2c3c1Oc1ccc(C(F)(F)F)cc1C=C3N(C)C2=O [Compound 8df, 1,5-Dimethyl-9-(trifluoromethyl)benzo[6,7]oxepino[4,3,2-cd]isoindol-2(1H)-one]
melting point: 227 to 229 °C
IC50 (Brd4 bromodomain): > 32 µM

— article PMC8002823, “Synthesis and Structure–Activity Relationships of Aristoyagonine Derivatives as Brd4 Bromodomain Inhibitors with X-ray Co-Crystal Research” (Molecules, 2021)
